Assay results from patent publication US12617784B2, “AKT inhibitor” (Nanjing Chia Tai Tianqing Pharmaceutical Co., Ltd., priority 2019, dated 2026).
Counter-ions that a name gives are not always drawn. Like-named read-outs stand apart in the source and are kept apart here.

Assays:
[1] = Pharmacokinetic evaluation in mice after intragastric administration; type: in vivo, mouse; conditions: po
Description: 400 μl of stock solution with a concentration of 10 mg/mL was accurately pipetted into a glass bottle, and 3.6 mL of mixed menstruum was added. The ratio of the menstruum in the final formulation is DMSO:mixed menstruum (v/v)=10:90. After vortexing (or sonication) and evenly distributed, 4 mL of a dosing solution with a concentration of 1 mg mL^-1 for each compound was obtained. Formulation of Isomer 2 of the compound of Example 15: Menstruum: DMSO: PEG400: ultrapure water=5:20:75 (v/v/v) 5.37 mg of test sample Isomer 2 of the compound of Example 15 was weighed into a glass bottle; 0.269 mL of DMSO was added, vortexed to completely dissolve the solid material; 1.074 mL of PEG400 was added, vortexed, and mixed; 4.028 mL of ultrapure water was added, vortexed and mixed to obtain a colorless solution with a concentration of 1 mg·mL^-1. Experimental animal: mouse, strain ICR, source: Weitong Lihua Laboratory Animal Technology Co., Ltd., age: 6-10 weeks, male. [table] The experimental animals were fed in the animal room of Suzhou Shengsu New Pharmaceutical Development Co., Ltd. The animal room was well ventilated and equipped with air conditioning. The temperature was maintained at 20-25° C. and the humidity was maintained at 40%-70%. Bright and dark lighting for 12 hours each, and the experimental animals ate and drank freely. After normal feeding for at least 5 days, mice with good physical signs were selected for this experiment after veterinary inspection. Each mouse was marked with a tag on its tail. On the day before the experiment, the mice were fasted overnight and were allowed to drink freely, and were fed 4 hours after the administration. […] After the administration, about 100 μL of blood was collected from the orbit of the mouse at each time point and placed in an EDTA-K2 anticoagulation tube. […] An LC-MS/MS analytical method for determining the concentration of compounds in mouse plasma was established and used to determine the concentration of compounds in the biological samples obtained in this experiment. The non-compartmental model in Pharsight Phoenix 7.0 was used to calculate the pharmacokinetic parameters.

AKT2 = biological target: T1, AKT2 (Homo sapiens, UniProt P31751); test: In vitro enzyme activity test (HTRF kinEASE TK), AKT2; type: biochemical; conditions: ATP 20 μM, enzyme 0.1 ng/well, reaction 50 min
T1 construct: purchased Carna 01-102
Description: (§1) Experimental Procedure 2.1 Preparation of Reagents
(§2) 1 mL 1× Kinase Reaction Buffer of Kinase AKT1, AKT2 and AKT3 contain 200 μL 5× Kinase Reaction Buffer, 5 μL 1 M MgCl2, 1 μL 1 M DTT and 794 μL ultrapure water.
(§3) In addition to the control wells, 4 μL of the diluted compound working solutions were added to all reaction wells.
(§4) b) 2 μL of the previously prepared TK-biotin substrate solution was added to all reaction wells.
(§5) c) 2 μL of the previously prepared enzyme solution was added to all reaction wells, except the negative wells. The volume of the negative well was filled with 2 μL of enzyme corresponding to 1× kinase reaction buffer. The plate was sealed with sealing film. After mixing, the plate was incubated at room temperature for 10 min to allow the compound and enzyme to fully combined.
(§6) d) 2 μL of ATP solution was added to all reaction wells to start the kinase reaction.
(§7) e) The test solution was prepared 5 min before the end of the kinase reaction.
(§8) f) After the kinase reaction was completed, 5 μL of diluted streptavidin-XL665 were added to all reaction wells, and immediately the diluted europium-labeled tyrosine kinase substrate antibody detection solution was added after mixing.
(§9) g) The plate was sealed and mixed well. […] The inhibition rate of each well was calculated through the fully active wells and the background signal wells, taking the average value in case of multiple wells. Meanwhile, the professional drawing analysis software PRISM 6.0 was used to fit the half maximal inhibitory concentration (IC50) of each test compound.

AKT1 = AKT1 (Homo sapiens, UniProt P31749); test: In vitro enzyme activity test (HTRF kinEASE TK), AKT1; type: biochemical; conditions: ATP 2 μM, enzyme 0.6 ng/well, reaction 50 min
Description: as §1, §2, §3, §4, §5, §6, §7, §8, §9

AKT3 = biological target: T2, AKT3 (Homo sapiens, UniProt Q9Y243); test: In vitro enzyme activity test (HTRF kinEASE TK), AKT3; type: biochemical; conditions: enzyme 0.3 ng/well, reaction 50 min
T2 construct: purchased Invitrogen PV3185
Description: as §1, §2, §3, §4, §5, §6, §7, §8, §9

[2] = male ICR mouse, 10 mg·kg−1 intragastrically, single dose, fasted, plasma
[3] = male ICR mouse, 10 mg·kg−1 intragastrically, single dose, fasted, plasma, read-out: AUC
[4] = male ICR mouse, 10 mg·kg−1 intragastrically, single dose, fasted, plasma, read-out: Cmax
[5] = male ICR mouse, 10 mg·kg−1 intragastrically, single dose, fasted, plasma, read-out: Tmax
[6] = male, ICR, mouse, in vivo, 10 mg/kg

AKT1, sequence (P31749 whole entry): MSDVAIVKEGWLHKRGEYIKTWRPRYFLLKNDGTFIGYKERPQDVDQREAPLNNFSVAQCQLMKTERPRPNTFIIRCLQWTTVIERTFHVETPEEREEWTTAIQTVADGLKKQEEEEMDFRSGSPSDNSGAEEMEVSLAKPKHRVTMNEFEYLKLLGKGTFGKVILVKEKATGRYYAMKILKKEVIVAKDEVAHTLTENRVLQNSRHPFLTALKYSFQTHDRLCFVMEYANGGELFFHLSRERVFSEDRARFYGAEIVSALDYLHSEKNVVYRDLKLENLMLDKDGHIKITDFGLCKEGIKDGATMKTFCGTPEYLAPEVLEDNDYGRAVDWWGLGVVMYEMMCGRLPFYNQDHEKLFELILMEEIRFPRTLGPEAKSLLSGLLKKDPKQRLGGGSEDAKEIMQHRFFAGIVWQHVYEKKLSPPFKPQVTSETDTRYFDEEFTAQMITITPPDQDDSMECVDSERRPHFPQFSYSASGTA
T1 sequence (P31751 whole entry): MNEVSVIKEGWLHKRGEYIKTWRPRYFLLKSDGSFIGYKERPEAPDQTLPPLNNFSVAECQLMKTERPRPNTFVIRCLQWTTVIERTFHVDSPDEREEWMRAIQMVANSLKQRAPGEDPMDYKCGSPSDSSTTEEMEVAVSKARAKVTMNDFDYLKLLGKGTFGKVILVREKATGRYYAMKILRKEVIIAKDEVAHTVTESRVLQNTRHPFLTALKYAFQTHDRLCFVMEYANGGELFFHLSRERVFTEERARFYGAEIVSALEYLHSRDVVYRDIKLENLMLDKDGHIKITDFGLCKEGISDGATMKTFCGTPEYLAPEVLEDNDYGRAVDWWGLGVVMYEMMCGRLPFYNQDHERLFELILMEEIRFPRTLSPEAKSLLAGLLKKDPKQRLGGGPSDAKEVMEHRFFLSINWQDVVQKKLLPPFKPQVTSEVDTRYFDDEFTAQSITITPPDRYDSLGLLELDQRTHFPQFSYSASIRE
T2 sequence (Q9Y243 whole entry): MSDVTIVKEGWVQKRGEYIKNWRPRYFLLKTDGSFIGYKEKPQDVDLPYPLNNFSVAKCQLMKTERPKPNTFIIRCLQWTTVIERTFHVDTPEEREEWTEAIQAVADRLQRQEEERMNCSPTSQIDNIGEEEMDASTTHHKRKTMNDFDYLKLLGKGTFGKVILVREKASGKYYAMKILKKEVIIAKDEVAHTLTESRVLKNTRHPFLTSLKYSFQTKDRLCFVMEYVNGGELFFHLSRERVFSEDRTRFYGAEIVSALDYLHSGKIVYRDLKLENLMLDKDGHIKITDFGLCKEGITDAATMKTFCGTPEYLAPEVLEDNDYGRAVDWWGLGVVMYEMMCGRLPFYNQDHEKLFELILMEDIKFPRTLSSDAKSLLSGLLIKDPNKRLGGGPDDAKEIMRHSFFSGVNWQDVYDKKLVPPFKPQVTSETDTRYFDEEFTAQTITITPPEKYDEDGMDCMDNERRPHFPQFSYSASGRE

Structure (SMILES)	IC50 (AKT2) [nM]	IC50 (AKT1) [nM]	IC50 (AKT3) [nM]	further results
CC(C)NC[C@@H](C(=O)N1CCN(c2ncnc3c2[C@H](C)CC(=O)N3)[C@H]2C[C@H]21)c1ccc(Cl)cc1 (single isomer, unassigned) [Example 15 Isomer 2]				half-life [1, 2]: 3.16 h; AUC [1, 3]: 2170 ng·h/mL; Cmax [1, 4]: 583 ng/mL; Tmax [1, 5]: 1 h
CC(C)NC[C@@H](C(=O)N1CC2CCC(C1)N2c1ncnc2c1[C@@H](C(F)(F)F)CC(=O)N2)c1ccc(Cl)cc1 (single isomer, unassigned) [Example 25 Isomer 1]	≥ 1000	218	20	
CC(C)NC[C@@H](C(=O)N1CCN(c2ncnc3c2N(C)CC(=O)N3)[C@@H]2C[C@@H]21)c1ccc(Cl)cc1 (single isomer, unassigned) [Example 27 Isomer 2]	≥ 1000	147	7.4	
CC(C)NC[C@@H](C(=O)N1CCN(c2ncnc3c2[C@H](C)OC(=O)N3)[C@H]2C[C@H]21)c1ccc(Cl)cc1 (single isomer, unassigned) [Example 34 Isomer 4]		0.6	0.12	AUC [1, 3]: 2580 ng·h/mL; Cmax [1, 4]: 497 ng/mL; Tmax [1, 5]: 4 h
CC(C)NCC(C(=O)N1CCN(c2ncnc3c2[C@H](C)CC(=O)N3)C[C@@H]1C)c1ccc(Cl)cc1 (stereo in doubt) [Example 9, (R)-4-((S)-4-((R)-2-(4-chlorophenyl)-3-(isopropylamino)propionyl)-3-methylpiperazin-1-yl)-5-methyl-5,8-dihydropyrido[2,3-d]pyrimidin-7(6H)-one]	206	167	3.3	
CC(C)NC[C@@H](C(=O)N1CCN(c2ncnc3c2[C@H](C)CC(=O)N3)CC1)c1ccc(Cl)cc1 [Example 2 (R) Configur- ation product, (R)-4-(4-((S)-2-(4-chlorophenyl)-3-(isopropylamino)propionyl)piperazin-1-yl)-5-methyl-5,8-dihydropyrido[2,3-d]pyrimidin-7(6H)-one]	4.3	2.4	0.4	
CC(C)NC[C@@H](C(=O)N1C2CCC1CN(c1ncnc3c1[C@H](C)CC(=O)N3)C2)c1ccc(Cl)cc1 [Example 10, (R)-4-(8-((S)-2-(4-chlorophenyl)-3-(isopropylamino)propionyl)-3,8-diazabicyclo[3.2.1]octan-3-yl)-5-methyl-5,8-dihydropyrido[2,3-d]pyrimidin-7(6H)-one]		2.8	0.21	half-life [1, 2]: 1.67 h; AUC [1, 3]: 911 ng·h/mL; Cmax [1, 4]: 321 ng/mL; Tmax [1, 5]: 0.5 h
C[C@@H]1CC(=O)Nc2ncnc(N3CCN(C(=O)C4(c5ccc(Cl)cc5)CCNCC4)CC3)c21 [Example 18, (R)-4-(4-(4-(4-chlorophenyl)piperidin-4-carbonyl)piperazin-1-yl)-5-methyl-5,8-dihydropyrido[2,3-d]pyrimidin-7(6H)-one formate]	256	590	20.1	
CC(C)NC[C@@H](C(=O)N1C2CCC1CN(c1ncnc3c1N(C)CC(=O)N3)C2)c1ccc(Cl)cc1 [Example 21, 4-(8-((S)-2-(4-chlorophenyl)-3-(isopropylamino)propionyl)-3,8-diazabicyclo[3.2.1]octan-3-yl)-5-methyl-5,8-dihydropteridine-7(6H)-one formate]		1.9	0.2	AUC [1, 6]: 2290 ng·h/mL; Cmax [1, 6]: 681 ng/mL; Tmax [1, 6]: 1 h
CC(C)NC[C@@H](C(=O)N1CCN(c2ncnc3c2N(C)CC(=O)N3)C[C@@H]1C)c1ccc(Cl)cc1 [Example 22, 4-((S)-4-((S)-2-(4-chlorophenyl)-3-(isopropylamino)propionyl)-3-methylpiperazin-1-yl)-5-methyl-5,8-dihydropteridine-7(6H)-one]	334	39	0.56	
CC(C)NC[C@@H](C(=O)N1CCN(c2ncnc3c2[C@H](C)C[C@H]3O)CC1)c1ccc(Cl)cc1 [GDC-0068, reference compound]				half-life [1, 2]: 2.59 h; AUC [1, 3]: 320 ng·h/mL; Cmax [1, 4]: 75.3 ng/mL; Tmax [1, 5]: 2 h

Continued, in another order:

IC50 (AKT2) [nM]	IC50 (AKT1) [nM]	IC50 (AKT3) [nM]	Structure (SMILES)	further results
≥ 1000	116	19	CC(C)NC[C@@H](C(=O)N1C2CCC1CN(c1ncnc3c1[C@H](C(F)(F)F)CC(=O)N3)C2)c1ccc(Cl)cc1 (single isomer, unassigned) [Example 24 Isomer 2]	
20	0.59	0.19	CC(C)NC[C@@H](C(=O)N1CC2CCC(C1)N2c1ncnc2c1[C@H](C(F)(F)F)CC(=O)N2)c1ccc(Cl)cc1 (single isomer, unassigned) [Example 25 Isomer 2]	
75	13	7.6	CC(C)NC[C@@H](C(=O)N1C2CCC1CN(c1ncnc3c1[C@@H]1C[C@@H]1C(=O)N3)C2)c1ccc(Cl)cc1 (single isomer, unassigned) [Example 39 Isomer 1]	
756	151	43	CC(C)NC[C@@H](C(=O)N1C2CCC1CN(c1ncnc3c1[C@H]1C[C@H]1C(=O)N3)C2)c1ccc(Cl)cc1 (single isomer, unassigned) [Example 39 Isomer 2]	
89	2.1	0.19	CCN1CC(=O)Nc2ncnc(N3CC4CCC(C3)N4C(=O)[C@H](CNC(C)C)c3ccc(Cl)cc3)c21 [Example 28]	
≥ 1000	210	1.8	CC(C)NC[C@@H](C(=O)N1C2CCC1CN(c1ncnc3c1N(CCO)CC(=O)N3)C2)c1ccc(Cl)cc1 [Example 31]	
800	77	22	CC(C)NC[C@@H](C(=O)N1C2CCC1CN(c1ncnc3[nH]c(=O)c(=O)n(C)c13)C2)c1ccc(Cl)cc1 [Example 36, 4-(8-((S)-2-(4-chlorophenyl)-3-(isopropylamino)propionyl)-3,8-diazabicyclo[3.2.1]octan-3-yl)-5-methyl-5,8-dihydropteridine-6,7-dione]	
23	2.4	0.28	C[C@@H]1CC(=O)Nc2ncnc(N3CC4CCC(C3)N4C(=O)[C@H](CNC3CC3)c3ccc(Cl)cc3)c21 [Example 38]	
